Values quoted from earlier work, collected in patent US10925995B2, “Absorber and absorbent article using the same” (LIVEDO CORPORATION, priority 2012, dated 2021).

Conditions: in water at 25 degrees centigrade; for acid dissociation constant pKa: no stage stated

| acid dissociation constant pKa | Compound | further results |
| --- | --- | --- |
| 4.12 | C=CCC(=O)O [vinyl acetic acid] | – |
| 4.66 | CCCCCCC(=O)O [heptanoic acid] | – |
| 3.19 | O=C(O)C(O)c1ccccc1 (stereo not shown) [mandelic acid] | – |
| – | O=C(O)CC(O)(CC(=O)O)C(=O)O [citric acid] | acid dissociation constant pKa, second stage: 4.35 |
| 4.26 | O=C(O)CCCCC(=O)O [adipic acid] | – |
| 3.43 | O=C(O)CS [mercaptoacetic acid] | – |
| – | Nc1ccc(C(=O)O)cc1 [p-aminobenzoic acid] | acid dissociation constant pKa, second stage: 4.85 |
| 3.12 | Nc1cccc(C(=O)O)c1 [m-aminobenzoic acid] | – |
| – | O=C(O)/C=C/C(=O)O [fumaric acid] | acid dissociation constant pKa, second stage: 4.10 |
| 4.44 | CC(=O)CCC(=O)O [levulinic acid] | – |
| – | Nc1ccccc1C(=O)O [o-aminobenzoic acid] | acid dissociation constant pKa, second stage: 4.95 |
| – | O=C(O)c1cccc(C(=O)O)n1 [2,6-pyridinedicarboxylic acid] | acid dissociation constant pKa, third stage (third stage): 4.68 |
| 3.55 | N#Cc1ccc(C(=O)O)cc1 [p-cyanobenzoic acid] | – |
| 4.35 | COC(=O)CC(O)(CC(=O)O)C(=O)O (stereo not shown) [citric acid monomethyl ester] | – |
| 4.63 | CCCCCC(=O)O [hexanoic acid] | – |
| – | O=C(O)[C@H](O)[C@@H](O)C(=O)O [(R,R)-tartaric acid] | acid dissociation constant pKa, second stage: 4.44 |
| 4.03 | NCCCC(=O)O [4-aminobutyric acid] | – |
| 3.92 | O=C(O)CCCl [3-chloropropionic acid] | – |

| acid dissociation constant pKa | Compound | further results |
| --- | --- | --- |
| – | O=C(O)C(O)C(O)C(=O)O (stereo not drawn) [d-tartaric acid] | acid dissociation constant pKa, second stage: 3.95 |
| 4.00 | O=C(O)c1ccc(Br)cc1 [p-bromobenzoic acid] | – |
| 4.70 | O=C(O)C1CCCCC1 [cyclohexane carboxylic acid] | – |
| 3.85 | O=C(O)c1cccc(I)c1 [m-iodobenzoic acid] | – |
| – | O=C(O)c1ccc2ccccc2n1 [quinaldic acid] | acid dissociation constant pKa, second stage: 4.75 |
| 3.44 | O=C(O)c1ccc([N+](=O)[O-])cc1 [p-nitrobenzoic acid] | – |
| 4.03 | O=C1O[C@H]([C@@H](O)CO)C(O)=C1O [L-ascorbic acid] | – |
| 3.74 | Nc1cccc(S(=O)(=O)O)c1 [m-aniline sulfonic acid] | – |
| 3.26 | COC(=O)c1ccncc1 [methyl isonicotinate] | – |
| – | O=C(O)c1ccccc1C(=O)O [o-benzenedicarboxylic acid] | acid dissociation constant pKa, second stage: 4.93 |
| 4.00 | O=C(O)c1ccc(I)cc1 [p-iodobenzoic acid] | – |
| 4.64 | CCCCC(=O)O [valeric acid] | – |
| – | O=C(O)c1ccncc1 [isonicotinic acid] | acid dissociation constant pKa, second stage: 4.87 |
| 3.81 | O=C(O)c1cccc(Br)c1 [m-bromobenzoic acid] | – |
| 3.23 | Nc1ccc(S(=O)(=O)O)cc1 [p-aniline sulfonic acid] | – |
| 3.45 | O=C(O)c1cccc([N+](=O)[O-])c1 [m-nitrobenzoic acid] | – |
| 4.31 | O=C(O)CCCCCC(=O)O [pimelic acid] | – |

| Compound | acid dissociation constant pKa | further results |
| --- | --- | --- |
| O=C(O)CCCC(=O)O [glutaric acid] | 4.13 | – |
| O=C(O)Cc1ccccc1 [phenylacetic acid] | 4.10 | – |
| O=C(O)/C=C\c1ccccc1 [cinnamic acid (cis)] | 3.88 | – |
| C/C=C/C(=O)O [crotonic acid] | 4.69 | – |
| COc1ccccc1C(=O)O [o-anisic acid] | 4.09 | – |
